Data: ChEMBL document CHEMBL5120759, “Synthesis, Biological Evaluation, and Molecular Docking Study of 3-Amino and 3-Hydroxy-seco A Derivatives of α-Amyrin and 3-Epilupeol as Inhibitors of COX-2 Activity and NF-kB Activation” (J Nat Prod, 2022)
pIC50: −log10 of the molar value. Activity calls are given as the source filed them. No cut-off for these calls is given here.

Legend:
[1] = Cytotoxicity against mouse RAW264.7 cells assessed as cell viability at 70 uM incubated for 24 hrs by MTS assay relative to control; type: toxicity, cell-based; conditions: read-out: Activity
[2] = Cytotoxicity against mouse RAW264.7 cells assessed as cell viability at 35 uM incubated for 24 hrs by MTS assay relative to control; type: toxicity, cell-based; conditions: read-out: Activity
RAW264.7 [3] = assay: Antiinflammatory activity against LPS-stimulated mouse RAW264.7 cells assessed as inhibition of NO production incubated for 2 hrs followed by LPS stimulation for 20 hrs by Griess reagent based assay; type: functional, cell-based
RAW-Blue [4] = assay: Inhibition of NF-kappaB activation in LPS-stimulated mouse RAW-Blue cells at 17.5 uM preincubated for 2 hrs followed by LPS stimulation and measured after 20 hrs by QUANTI-Blue assay; type: cell-based; conditions: time 22.0 hrs
Mus musculus = assay: Anti-inflammatory activity against TPA-induced auricular edema CD-1 mouse model assessed as inhibition of ear edema at 1 mg per ear applied immediately after TPA application and measured after 4 hrs relative to control; type: functional
[5] = molecular target: T1, COX-1 (Prostaglandin G/H synthase 1) (Ovis aries, UniProt P05979); assay: Inhibition of ovine COX-1 at 17.5 uM using arachidonic acid as substrate by colorimetric analysis; type: single protein; conditions: sheep, ovine COX-1 enzyme, probe arachidonic acid
T1 sequence (P05979 whole entry): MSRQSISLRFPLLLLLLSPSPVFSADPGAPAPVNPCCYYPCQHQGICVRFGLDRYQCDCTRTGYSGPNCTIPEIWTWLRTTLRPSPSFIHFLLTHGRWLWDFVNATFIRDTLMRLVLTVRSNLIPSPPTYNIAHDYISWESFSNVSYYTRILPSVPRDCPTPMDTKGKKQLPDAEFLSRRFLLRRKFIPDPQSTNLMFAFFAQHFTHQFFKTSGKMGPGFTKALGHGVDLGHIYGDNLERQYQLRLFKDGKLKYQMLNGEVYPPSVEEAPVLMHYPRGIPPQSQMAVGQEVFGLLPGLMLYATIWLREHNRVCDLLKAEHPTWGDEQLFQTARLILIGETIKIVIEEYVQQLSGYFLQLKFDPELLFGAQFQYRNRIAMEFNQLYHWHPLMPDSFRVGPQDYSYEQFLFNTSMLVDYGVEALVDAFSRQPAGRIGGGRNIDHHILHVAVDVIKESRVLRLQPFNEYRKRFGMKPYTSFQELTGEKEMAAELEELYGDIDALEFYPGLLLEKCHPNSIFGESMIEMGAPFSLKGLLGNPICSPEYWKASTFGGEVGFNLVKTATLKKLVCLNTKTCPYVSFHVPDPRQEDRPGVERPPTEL

[6] = molecular target: T2, Prostaglandin G/H synthase 2 (Homo sapiens) (UniProt P35354); assay: Inhibition of human COX-2 at 17.5 uM using arachidonic acid as substrate by colorimetric analysis
T2 sequence (whole entry): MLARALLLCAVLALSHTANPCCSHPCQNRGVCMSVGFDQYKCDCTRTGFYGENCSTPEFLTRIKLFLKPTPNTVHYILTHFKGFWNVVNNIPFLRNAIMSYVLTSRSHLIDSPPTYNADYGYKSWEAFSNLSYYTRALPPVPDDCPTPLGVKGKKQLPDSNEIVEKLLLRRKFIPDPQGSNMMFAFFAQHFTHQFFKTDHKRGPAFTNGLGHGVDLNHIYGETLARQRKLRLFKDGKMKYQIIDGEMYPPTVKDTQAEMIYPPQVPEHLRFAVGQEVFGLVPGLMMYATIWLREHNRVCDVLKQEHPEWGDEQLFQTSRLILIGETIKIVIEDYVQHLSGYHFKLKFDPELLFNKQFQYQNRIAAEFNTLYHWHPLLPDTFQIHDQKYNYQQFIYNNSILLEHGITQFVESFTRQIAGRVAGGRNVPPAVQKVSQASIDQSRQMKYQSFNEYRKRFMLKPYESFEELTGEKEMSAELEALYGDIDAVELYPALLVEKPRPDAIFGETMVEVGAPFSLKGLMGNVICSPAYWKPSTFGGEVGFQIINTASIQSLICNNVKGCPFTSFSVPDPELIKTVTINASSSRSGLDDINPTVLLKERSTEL

RAW264.7 [7] = assay: Antiinflammatory activity against LPS-stimulated mouse RAW264.7 cells assessed as inhibition of TNF-alpha production at 84 uM incubated for 2 hrs followed by LPS stimulation for 20 hrs by ELISA relative to control; type: functional; conditions: time 22 hrs
RAW264.7 [8] = assay: Antiinflammatory activity against LPS-stimulated mouse RAW264.7 cells assessed as inhibition of IL-6 production at 84 uM incubated for 2 hrs followed by LPS stimulation for 20 hrs by ELISA relative to control; type: functional; conditions: time 22 hrs
RAW264.7 [9] = assay: Cytotoxicity against mouse RAW264.7 cells assessed as reduction in cell viability at 8.8 to 70 uM incubated for 24 hrs by MTS assay; type: toxicity, cell-based; conditions: raw264.7, 24 h, dose 8.8-70 µM
RAW264.7 [10] = assay: Antiinflammatory activity against LPS-stimulated mouse RAW264.7 cells assessed as inhibition of NO production at 8.8 to 70 uM prestimulated with LPS and 2 hrs later incubated with compound by Griess reagent based assay; type: functional, cell-based; conditions: dose 8.8-70 µM
RAW264.7 [11] = assay: Antiinflammatory activity against LPS-stimulated mouse RAW264.7 cells assessed as inhibition of IL-6 production incubated for 2 hrs followed by LPS stimulation for 20 hrs by ELISA; type: functional, cell-based
RAW264.7 [12] = assay: Antiinflammatory activity against LPS-stimulated mouse RAW264.7 cells assessed as inhibition of TNF-alpha production at 70 uM incubated for 2 hrs followed by LPS stimulation for 20 hrs by ELISA relative to control; type: functional; conditions: time 22 hrs
RAW-Blue [13] = assay: Inhibition of NF-kappaB activation in LPS-stimulated mouse RAW-Blue cells at 70 uM preincubated for 2 hrs followed by LPS stimulation and measured after 20 hrs by QUANTI-Blue assay; type: cell-based; conditions: time 22.0 hrs
RAW264.7 [14] = assay: Antiinflammatory activity against LPS-stimulated mouse RAW264.7 cells assessed as inhibition of IL-6 production at 17.5 to 70 uM prestimulated with LPS and 2 hrs later incubated with compound by […] assay; type: functional, cell-based; conditions: dose 17.5-70 µM
RAW264.7 [15] = assay: Antiinflammatory activity against LPS-stimulated mouse RAW264.7 cells assessed as inhibition of TNF-alpha production at 17.5 to 70 uM prestimulated with LPS and 2 hrs later incubated with compound by […] assay; type: functional, cell-based; conditions: dose 17.5-70 µM

Row | Structure (SMILES) | viability at 24 h, 70 µM [1] [%] | pIC50 (RAW264.7 [3]) | inhibition (INH) (Mus musculus) [%] | inhibition at 17.5 µM [5] [%] | inhibition [6] [%] | further results
1 | C[C@H]1[C@H](C)CC[C@]2(C(=O)O)CC[C@]3(C)C(=CC[C@@H]4[C@@]5(C)CC[C@H](O)C(C)(C)[C@@H]5CC[C@]43C)[C@H]12 [URSOLIC ACID] | 13.9 | 4.86 | 34.2 | 23.6 |  | viability at 24 h, 35 µM [2]: 30%; inhibition (RAW-Blue [4]): 52.2%
2 | C=C(C)[C@@H]1CC[C@]2(C)[C@H](CC=C3[C@@H]4[C@@H](C)[C@H](C)CC[C@]4(C)CC[C@]32C)[C@@]1(C)CCCN1CCOCC1 | 73.8 |  | 12.2 | 12.2 | 74.4 | 
3 | COc1ccc2c(c1)c(CC(=O)O)c(C)n2C(=O)c1ccc(Cl)cc1 [INDOMETHACIN] |  | 4.39 | 91.4 |  |  | inhibition at 84 µM (RAW264.7 [7]): 54.6%; inhibition at 84 µM (RAW264.7 [8]): 44.2%
4 | C=C(C)[C@@H]1CC[C@]2(C)CC[C@]3(C)[C@H](CC[C@@H]4[C@@](C)(CCCO)[C@H](C(=C)C)CC[C@]43C)[C@@H]12 |  | 4.26 | 17.3 | 14.8 | 26 | Activity (RAW264.7 [9]): Non-Toxic; Activity (RAW264.7 [10]): Active; pIC50 (RAW264.7 [11]): 4.42; inhibition at 70 µM (RAW264.7 [12]): 49.8%; inhibition (RAW-Blue [13]): 63.4%; Activity (RAW264.7 [14]): Active; Activity (RAW264.7 [15]): Active
5 | C=C(C)[C@@H]1CC[C@]2(C)CC[C@]3(C)[C@H](CC[C@@H]4[C@@]5(C)CC[C@@H](O)C(C)(C)[C@@H]5CC[C@]43C)[C@H]12 |  |  | 66.4 |  |  | 
